Measured values: US20260007644A1, “NIMODIPINE COMPOSITION FREE OF ETHANOL AND PHOSPHOLIPID FOR MOIST HEAT STERILIZATION AND METHOD FOR PREPARING SAME” (BEIJING DELIVERY PHARMACEUTICAL TECHNOLOGY CO., LTD, priority 2022, published 2026)

Columns and labels:
[1] = Description / appearance of the concentrates (visual inspection); format: physicochemical; details: 1.00 g active ingredient, HS15 45.00 g, propylene glycol 54.00 g, sterilized at 121° C. for 15 minutes
Description: The formation of solution upon dilution with 5% dextrose injection and the stability of the diluted solutions (the concentration of nimodipine is 0.1 mg/mL) were observed.
According to the Guidelines for the Stability Testing of Drug Substances and Preparations in Section 9001 of the General Notices, Pharmacopoeia of the People's Republic of China 2020, Volume IV, the concentrates prepared in Example 10 were tested at a temperature of 60° C. or under the light with an intensity of 5000 Lux, and sampled at the end of the 5th, 10th and 30th days to examine the specified items. • 1.
Method: visual inspection.

[2] = cited from earlier work

| Molecule | formation of a clear and transparent solution in the system of HS15 and propylene glycol [1] | solubility in water [2] |
| --- | --- | --- |
| CC[C@@H]([C@H](C)O)n1ncn(-c2ccc(N3CCN(c4ccc(OC[C@@H]5CO[C@@](Cn6cncn6)(c6ccc(F)cc6F)C5)cc4)CC3)cc2)c1=O [posaconazole] | failed to form clear and transparent solutions |  |
| COc1cc([C@@H]2c3cc4c(cc3[C@@H](O[C@@H]3O[C@@H]5CO[C@@H](c6cccs6)O[C@H]5[C@H](O)[C@H]3O)[C@H]3COC(=O)[C@H]23)OCO4)cc(OC)c1O [teniposide] | failed to form clear and transparent solutions |  |
| COCCOC(=O)C1=C(C)NC(C)=C(C(=O)OC(C)C)C1c1cccc([N+](=O)[O-])c1 (racemic) [Nimodipine, 1-methylethyl 2-methoxyethyl (±)-2,6-dimethyl-4-(3-nitrophenyl)-1,4-dihydropyridine-3,5-dicarboxylate] |  | insoluble in water |
| ginsenoside | failed to form clear and transparent solutions |  |
| C=C1CC[C@@H]2[C@](C)(CO)[C@H](O)CC[C@@]2(C)[C@@H]1C/C=C1/C(=O)OC[C@H]1O [andrographolide] | failed to form clear and transparent solutions |  |
